Reference: patent EP1885364B1, “HALOGENATED QUINDOLINE DIMERS FOR THE TREATMENT OF CANCER” (Crystax Pharmaceuticals, S.L., priority 2005, dated 2006)

Experiments:
Format in all cases: cell-based
[1] = test system: Jurkat clon E6-1 leukemia; assay: MTT in vitro cytotoxicity, Jurkat; settings: Homo sapiens, Jurkat cells, concentrations until 100 µM, incubation until 72 h
From the text: (§1) IC50 is the compound concentration at which 50% of a specific cell type die in a standardized assay, and thus a measure of cytotoxicity. Jurkat is a human leukaemia T cell line, GLC-4 is a human small-cell lung-carcinoma cell line and NIH-3T3 is a rat non-cancerous cell line. [drawing 3]
(§2) These compounds have been tested in a greater number of different cell lines. IC50 is the compound concentration at which 50% of a specific cell type die in a standardized assay, and thus a measure of cytotoxicity. Jurkat is a human leukaemia T cell line, GLC-4 is a human small-cell lung-carcinoma cell line, NIH-3T3 is a rat non-cancerous cell line, K-562 is a human chronic myelogenous leukemia cell line, A549 is a human lung carcinoma cell line, RPMI-1788 is a human leukocytes of peripherial blood from healthy […] cell line, MCF-7 is a human breast adenocarcinoma cell line, Capan-2 is a human pancreas adenocarcinoma cell line, Colo320HSR is a human colon carcinoma cell line, SW-837 is a human rectum adenocarcinoma cell line, IM-9 is a human bone marrow myeloma cell line, IMR-32 is a human neuroblastoma cell line and MT-4 is a human mixed heart's and peripheral blood's lymphocytes of patients with T-cell leukemia cell line. Table 2. Biological activities of IIIa-IIIg.
(§3) The in vitro cytotoxicity of the compounds of the present invention was evaluated by colorimetric assays with tetrazol salts (MTT) on Jurkat clon E6-1 leukemia, on GLC-4 clon carcinoma, on K-562 chronic myelogenous leukemia, on A549 lung carcinoma, on RPMI-1788 leukocytes of peripherial blood from healthy […], on MCF-7 breast adenocarcinoma, on Capan-2 pancreas adenocarcinoma, on Colo320HSR colon carcinoma, on SW-837 rectum adenocarcinoma, on IM-9 bone marrow myeloma, on IMR-32 neuroblastoma and on MT-4 mixed heart's and peripheral blood's lymphocytes of patients with T-cell leukemia human cell lines, according to the protocol described by Mosmann et al. (J. Immunol. Methods, 1983,65, 55-63) incorporated herein by reference. In all cases the concentrations used were until 100 µM and times of incubation until 72 h. […] Table 3. Biological activities.

[2] = test system: K-562 chronic myelogenous leukemia; assay: MTT in vitro cytotoxicity, K-562; settings: Homo sapiens, K562, K-562 cells, concentrations until 100 µM, incubation until 72 h
From the text: as §2, §3

[3] = test system: A549 lung carcinoma; assay: MTT in vitro cytotoxicity, A549; settings: Homo sapiens, A549 cells, concentrations until 100 µM, incubation until 72 h
From the text: as §2, §3

[4] = test system: RPMI-1788 leukocytes of peripherial blood from healthy person; assay: MTT in vitro cytotoxicity, RPMI-1788; settings: Homo sapiens, RPMI-1788 cells (from healthy person), concentrations until 100 µM, incubation until 72 h
From the text: as §2, §3

[5] = test system: GLC-4; assay: MTT in vitro cytotoxicity, GLC-4; settings: Homo sapiens, GLC4, GLC-4 cells, concentrations until 100 µM, incubation until 72 h
From the text: as §1, §2, §3

[6] = test system: NIH-3T3; assay: Cytotoxicity in non-cancerous cell line NIH-3T3; settings: NIH3T3; NIH-3T3 non-cancerous cell line
From the text: as §1, §2

[7] = test system: MCF-7 breast adenocarcinoma; assay: MTT in vitro cytotoxicity, MCF-7; settings: Homo sapiens, MCF7, MCF-7 cells, concentrations until 100 µM, incubation until 72 h
Experimental: (§4) These compounds have been tested in a greater number of different cell lines. IC50 is the compound concentration at which 50% of a specific cell type die in a standardized assay, and thus a measure of cytotoxicity. […]
(§5) The in vitro cytotoxicity of the compounds of the present invention was evaluated by colorimetric assays with tetrazol salts (MTT) on Jurkat clon E6-1 leukemia, on GLC-4 clon carcinoma, on K-562 chronic myelogenous leukemia, on A549 lung carcinoma, on RPMI-1788 leukocytes of peripherial blood from healthy […], on MCF-7 breast adenocarcinoma, on Capan-2 pancreas adenocarcinoma, on Colo320HSR colon carcinoma, on SW-837 rectum adenocarcinoma, on IM-9 bone marrow myeloma, on IMR-32 neuroblastoma and on MT-4 mixed heart's and peripheral blood's lymphocytes of patients with T-cell leukemia human cell lines, according to the protocol described by Mosmann et al. (J. Immunol. […]

[8] = test system: Capan-2 pancreas adenocarcinoma; assay: MTT in vitro cytotoxicity, Capan-2; settings: Homo sapiens, Capan-2 cells, concentrations until 100 µM, incubation until 72 h
Experimental: as §4, §5

[9] = test system: Colo320HSR colon carcinoma; assay: MTT in vitro cytotoxicity, Colo320HSR; settings: Homo sapiens, Colo-320HSR cells, concentrations until 100 µM, incubation until 72 h
Experimental: as §4, §5

[10] = test system: SW-837 rectum adenocarcinoma; assay: MTT in vitro cytotoxicity, SW-837; settings: Homo sapiens, SW837, SW-837 cells, concentrations until 100 µM, incubation until 72 h
Experimental: as §4, §5

[11] = test system: IM-9 bone marrow myeloma; assay: MTT in vitro cytotoxicity, IM-9; settings: Homo sapiens, IM-9 cells, concentrations until 100 µM, incubation until 72 h
Experimental: as §4, §5

[12] = test system: IMR-32 neuroblastoma; assay: MTT in vitro cytotoxicity, IMR-32; settings: Homo sapiens, IMR-32 cells, concentrations until 100 µM, incubation until 72 h
Experimental: as §4, §5

[13] = test system: MT-4 mixed heart's and peripheral blood's lymphocytes of patients with T-cell leukemia; assay: MTT in vitro cytotoxicity, MT-4; settings: Homo sapiens, MT4, MT-4 cells, concentrations until 100 µM, incubation until 72 h
Experimental: as §4, §5

SMILES	IC50 [1]	IC50 [2]	IC50 [3]	IC50 [4]	IC50 [5]	IC50 [6]	IC50 [7]	IC50 [8]	IC50 [9]	IC50 [10]	IC50 [11]	IC50 [12]	IC50 [13]
CN(CCCNC(=O)c1c2ccccc2nc2c1[nH]c1ccccc12)CCCNC(=O)c1c2cc(Cl)ccc2nc2c1[nH]c1ccccc12 [IIIg, N-[3-[[3-[11-((2-chloro-10H-indolo[3,2-b]quinoline)carbonyl)amino]-propyl]-methylamino]propyl]-10H-indolo[3,2-b]quinoline-11-carboxamide]	0.7 µM	5.8 µM	6.2 µM	3.2 µM									
O=C(O)c1c2cc(F)ccc2nc2c1[nH]c1ccccc12 [IIb]	13 µM				12 µM								
CN(CCCNC(=O)c1c2cc(F)ccc2nc2c1[nH]c1ccccc12)CCCNC(=O)c1c2cc(Cl)ccc2nc2c1[nH]c1ccccc12 [IIIe, N-[3-[[3-[11-((2-chloro-10H-indolo[3,2-b]quinoline)carbonyl)amino]-propyl]-methylamino]propyl]-2-fluoro-10l-l-indolo[3,2-b]quinoline-11-carboxamide]	0.5 µM	6.1 µM	11.6 µM	2.9 µM									
CN(CCCNC(=O)c1c2cc(Cl)ccc2nc2c1[nH]c1ccccc12)CCCNC(=O)c1c2cc(Cl)ccc2nc2c1[nH]c1ccccc12 [IIIa, N,N'-(4-methyl-4-azaheptamethylene)-di-(-2-chloro-10H-indolo[3,2-b]quinoline)-11,11'-arboxamide]	0.09 µM	0.65 µM	12.2 µM	3 µM	0.16 µM	11.2 µM	3.4 µM	20.1 µM	0.45 µM	6.2 µM	4.6 µM	0.9 µM	4.5 µM
CN(CCCNC(=O)c1c2cc(Cl)ccc2nc2c1[nH]c1ccccc12)CCCNC(=O)c1c2cc(Br)ccc2nc2c1[nH]c1ccccc12 [IIId, N-[3-[[3-[11-((2-bromo-10H-indolo[3,2-b]quinoline)carbonyl)amino]-propyl]-methylamino]propyl]-2-chloro-10H-indolo[3,2-b]quinoline-11-carboxamide]	0.6 µM	5.3 µM	12.9 µM	3.5 µM									
CN(CCCNC(=O)c1c2cc(F)ccc2nc2c1[nH]c1ccccc12)CCCNC(=O)c1c2cc(F)ccc2nc2c1[nH]c1ccccc12 [IIIb, N,N'-(4-methyl-4-azaheptamethylene)-di-(-2-fluoro-10H-indolo[3,2-b]quinoline)-11,11'-carboxamide]	0.5 µM	1.1 µM	10 µM	5.3 µM		64.3 µM	4.8 µM	25.5 µM	3.2 µM	17.9 µM	7.5 µM	0.7 µM	9 µM
O=C(O)c1c2cc(Cl)ccc2nc2c1[nH]c1ccccc12 [IIa]	> 25 µM				15.7 µM								
O=C(O)c1c2cc(Br)ccc2nc2c1[nH]c1ccccc12 [IIc]	> 25 µM												
CN(CCCNC(=O)c1c2ccccc2nc2c1[nH]c1ccccc12)CCCNC(=O)c1c2ccccc2nc2c1[nH]c1ccccc12 [Ia, reference compound]	0.97 µM				1.45 µM	6.77 µM							
CN(CCCNC(=O)c1c2ccccc2nc2c1[nH]c1ccccc12)CCCNC(=O)c1c2cc(F)ccc2nc2c1[nH]c1ccccc12 [IIIf, N-[3-[[3-[11-((2-fluoro-10H-indolo[3,2-b]quinoline)carbonyl)amino]-propyl]-methylamino]propyl]-10H-indolo[3,2-b]quinoline-11-carboxamide]	0.2 µM	2.8 µM	1.6 µM	1.7 µM									
CN(CCCNC(=O)c1c2cc(Br)ccc2nc2c1[nH]c1ccccc12)CCCNC(=O)c1c2cc(Br)ccc2nc2c1[nH]c1ccccc12 [IIIc, N,N'-(4-methyl-4-azaheptamethylene)-di-(-2-bromo-10H-indolo[3,2-b]quinoline)-11,11'-carboxamide]	0.8 µM			9.1 µM									
